# Results reported in publication PMC6954720, “Discovery of retinoic acid receptor agonists as proliferators of cardiac progenitor cells through a phenotypic screening approach” (Stem Cells Translational Medicine, 2019).
# Entries after “also recorded” stand apart in the source; their conditions may differ. Read-outs that look alike come from different tables or passages of the source.
# How the values were obtained:
# [1] = test system: human iPS-derived cardiac progenitor cells (CPCs); assay: CPC proliferation assay (nuclear count); assay type: cell-based; settings: primary screen, relative to basic FGF 100 ng/mL
# Protocol: The CPC proliferation assay including image and data analysis was performed as previously described.14 Cardiac progenitor marker antibodies are listed in Table S3.
# A library of 10 000 compounds was screened in singlicate at three concentrations (0.1, 1.0, and 10 μM) in the CPC proliferation assay. Each plate contained neutral controls, 0.1% DMSO and maximum controls, 100 ng/mL human basic fibroblast growth factor (FGF; Invitrogen, ThermoFisher Scientific, Waltham, Massachusetts). The data were analyzed using the Genedata Screener software (Genedata, Inc, Basel, Switzerland). […] Results were calculated using the following calculation method: compound % effect = 100 × [(X − min)/(max − min)], where X represents a normalized value for the compound based on the neutral and maximum controls.
# The library was screened in three‐point concentration response (CR) at 0.1, 1.0, and 10 μM measuring proliferation of human induced pluripotent stem (iPS)‐derived CPCs with nuclear count, as measured by Hoechst staining, as the primary endpoint.
# [2] = test system: HuES6 hPSC-derived cardiac progenitors; assay: HuES6-derived cardiac progenitors replated on day 5: cell number, RT-qPCR, immunocytochemistry; assay type: cell-based, human; settings: for effect on cell proliferation / cell numbers, in words: 1.0 μM, day-5 replated progenitors, 4 days of exposure
# Protocol: Insulin and signaling agonists were omitted after 1 day. On days 2‐3, the nascent mesodermal cells were specified to the cardiac lineage using 0.2 μM C‐59 (R&D Tocris) supplementation. Culture medium was replaced daily.
# Basal cardiac progenitor medium was composed of DMEM/F12 (ThermoFisher Scientific), insulin/transferrin/selenium supplement, 0.1% human serum albumin (Biological Industries Inc, Cromwell, Connecticut), 1× chemically defined lipids (ThermoFisher Scientific), and antibiotics. RAR agonists (1 μM) were added from the day of passaging the cells. Samples were harvested and monitored after 4 days of treatment.
# Cell numbers per well were quantified following single‐cell dissociation with Accutase and using standard Neubauer counting chambers. RT‐qPCR and immunocytochemistry were performed according to standard procedures. RPL37A served as housekeeping gene for normalization.
# human aortic SMCs = test system: human aortic SMCs; parameters: method as in PMID 24424466; settings: cited from earlier work
# [3] = target: T1, RARA (alpha) ligand binding domain (Homo sapiens, UniProt P10276); assay: RAR LBD-SRC1-2 coactivator peptide recruitment assay, agonist format, RARA; assay type: biochemical
# T1 sequence (P10276 183-417 limits assumed): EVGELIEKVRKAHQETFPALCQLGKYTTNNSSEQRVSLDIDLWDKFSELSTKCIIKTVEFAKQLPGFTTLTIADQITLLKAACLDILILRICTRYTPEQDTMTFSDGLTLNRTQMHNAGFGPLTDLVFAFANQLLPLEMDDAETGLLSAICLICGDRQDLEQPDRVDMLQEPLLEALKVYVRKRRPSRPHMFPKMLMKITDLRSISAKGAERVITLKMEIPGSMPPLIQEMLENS
# Protocol: RAR ligand binding domain (LBD)‐SRC1‐2 coactivator peptide (NCOA1_677‐700 biotinylated) recruitment assays were established for the three RAR isotypes RARA (alpha), RARB (beta), and RARG (gamma) to determine relative potencies. […] A total of 0.4 μL of a fixed concentration range of test ligands dissolved in dimethyl sulphoxide (DMSO) was added to assay plates using an acoustic liquid dispenser. […] The raw data were transformed to % effect using the equation: compound % effect = 100 × [(X − min)/(max − min)], where X represents the effect in the presence of test compound and max and min are the effects in presence of the maximum and minimum controls, respectively.
# The data were plotted to generate concentration‐response profiles and the concentration‐response curves were fit to the data using the four‐parameter logistic smart fit method in the Genedata Screener software (Genedata, Inc).
# murine CFs = test system: murine CFs; parameters: method as in PMID 24424466; settings: cited from earlier work
# [4] = test system: human iPS-derived cardiac progenitor cells (CPCs); assay: CPC proliferation assay (nuclear count); assay type: cell-based
# [5] = test system: human cardiac fibroblasts (CFs); assay: CF proliferation assay (nuclear count)
# Protocol: To ensure that these molecules were not general proliferators of all cardiac cells, they were also tested in a human CF proliferation assay31 using nuclear count as the endpoint.
# [6] = test system: human umbilical vein endothelial cells (HUVECs); parameters: method as in PMID 24424466; settings: cited from earlier work
structure (smiles),measurement,setting,value
"CC1=C(/C=C/C(C)=C/C=C/C(C)=C/C(=O)O)C(C)(C)CCC1 [ATRA, all‐trans retinoic acid]",% Effect-normalised cell count,[1]; Log Concentration M -5 (10 μM),59%
same,% Effect-normalised cell count,[1]; Log Concentration M -6 (1.0 μM),14%
same,% Effect-normalised cell count,[1]; Log Concentration M -7 (0.1 μM),14%
same,"terminal cardiac differentiation, in words","[2]; 1 μM, day-5 replated cells, 4 days",did not acquire a beating phenotype; also recorded: pronounced inhibition of terminal cardiac differentiation
same,expression of cardiac progenitor markers vs untreated,"[2]; 1 μM, day-5 replated cells, 4 days, with the exception of ISL1",enhanced the expression of cardiac progenitor markers
same,"effect on cell proliferation / cell numbers, in words",[2],strong positive effects on cell proliferation
same,"effect on cell proliferation / cell numbers, in words",[2]; listed as RA,increase in cell numbers
same,proliferation of human aortic SMCs,human aortic SMCs,inhibited the proliferation
same,top effect (% of maximum control),[3],103%
same,proliferation of murine CFs,murine CFs,inhibited the proliferation
same,EC50,"[4]; 10-point CR, variable between occasions, read-out: EC50 variation between occasions, lower end",0.05 µM
same,EC50,"[4]; 10-point CR, variable between occasions, read-out: EC50 variation between occasions, upper end",> 10 µM
same,EC50,"[4]; 10-point concentration response, read-out: EC50, CPC proliferation",0.056 µM
same,EC50,"[4]; iPSC-derived CPC proliferation, 10-point concentration response, read-out: CPC pEC50 (converted)",0.0501 µM
same,"CF proliferation, result in words",[5],inactive
same,proliferation of HUVECs,[6],promoted the proliferation
